The target in one assay is T1, Src (p60^c-src) (Homo sapiens, UniProt P12931).
T1 construct: purchased Upstate Biotechnology, Inc., Lake Placid, N.Y. (UBI)
The experiment in a line: SRC-Inhibitor-Assay, time-resolved fluorescence kinase assay (Src). It counts as biochemical. The note with it: ATP 5 μM; peptide 10 μM; enzyme 2.5 U/ml; pre-incubated 15 min at 15° C. From the text:
(§1) The activity of the compounds according to this invention as inhibitors for the src-family tyrosine kinases was shown by using the following assay. As used herein Ro refers to the peptide: NH2-A-E-E-E-I-Y-G-E-F-E-A-K-K-K-K-CONH2(SEQ ID NO: 1); Ja133-Ro refers to the peptide: Ja133-G-Aminocaprylic acid-A-E-E-E-I-Y-G-E-F-E-A-K-K-K-K-CONH2(SEQ ID NO: 2), wherein Ja133 is LightCycler-Red 640-N-hydroxy succinimide ester; PT66 refers to a phosphotyrosine specific antibody which can detect the phoyphorylated tyrosine of protein tyrosine kinase; and TCEP refers to Tris(2-carboxyethyl)phosphine; Lck Cisbio Mab PT66-K refers to Anti-Phosphotyrosine (PT66)-Cryptate; and Src EG&G Wallac PT66 Eu-W1024 refers to Eu^3+-labelled Anti-Phosphotyrosine (PT66)-Cryptate.
(§2) whereby both peptides were synthesized by an optimized solid phase peptide synthesis protocol (Merrifield, Fed. Proc. Fed. Amer. Soc. Exp. Biol. 21(1962) 412) on a Zinsser SMP350 peptide synthesizer. Shortly, the peptide was assembled on 160 mg (22.8 μmol scale) of a Rink-Linker modified polystyrene solid phase by repeatedly conjugating an twenty fold excess of amino acids each protected by temporary piperidine labile Fmoc- and permanent acid labile tert-Bu-, BOC- and tert-BuO-groups depending on the side chain function. The substrate sequence AEEEIYGEFEAKKKK (SEQ ID NO: 1) was N-terminal additionally mounted with the spacer amino acids Aminocaprylic acid and Glycin. After cleavage of the N-terminal temporary protecting group the still attached and protected peptide was labeled with a 1.5 fold amount of LightCycler-Red 640-N-hydroxy succinimide ester (purchased by Roche Diagnostics GmbH) and triethylamine. After 3 hrs. the resin was washed with Dimethylformamide and Isopropanol until the eluates of the blue resin got colorless. […] The substrate was finally isolated by a preparative reverse phase HPLC purification. The purification yielded 12.2 mg RP-HPLC single peak pure blue material (lyophilisate). The identity was proven by Matrix Assisted Laser Desorption Ionization (MALDI) mass spectroscopy [2720.0]. Enzymes: Upstate Lck (p56^lck, active), Upstate Src (p60^c-src, partially purified) were purchased from Upstate Biotechnology, Inc., Lake Placid, N.Y. (UBI). Time-resolved Fluorescence Assay: Reader: Perkin Elmer, Wallac Viktor 1420-040 multilabel counter; Liquid handling system: Beckman Coulter, Biomek 2000. ATP, Tween 20, HEPES were purchased from Roche Molecular Biochemicals, MgCl2 and MnCl2 were purchased from Merck Eurolab, TCEP was purchased from Pierce, 384 Well low volume fluorescence plates was purchased from Falcon. Assay Description:
(§3) At first the enzyme is pre-incubated for 15 min. at 15° C. in aqueous solution with corresponding amounts of inhibitors according to this invention. Then the phosphorylation reaction is started by adding a reaction mixture, containing ATP, Peptide and PT66, and subsequent shaking. The proceeding of this reaction is immediately monitored using time resolved fluorescence spectroscopy in a suitable well plate reader.
(§4) The IC50-values can be obtained from the reaction rates by using a non-linear curve fit (EXCELFIT software, from ID Business Solution Ltd., Guilford, Surrey, UK).

Another assay deals with T2, Lck (p56^lck) (Homo sapiens, UniProt P06239).
T2 construct: purchased Upstate Biotechnology, Inc., Lake Placid, N.Y. (UBI)
T2 sequence (P06239 whole entry, species assumed): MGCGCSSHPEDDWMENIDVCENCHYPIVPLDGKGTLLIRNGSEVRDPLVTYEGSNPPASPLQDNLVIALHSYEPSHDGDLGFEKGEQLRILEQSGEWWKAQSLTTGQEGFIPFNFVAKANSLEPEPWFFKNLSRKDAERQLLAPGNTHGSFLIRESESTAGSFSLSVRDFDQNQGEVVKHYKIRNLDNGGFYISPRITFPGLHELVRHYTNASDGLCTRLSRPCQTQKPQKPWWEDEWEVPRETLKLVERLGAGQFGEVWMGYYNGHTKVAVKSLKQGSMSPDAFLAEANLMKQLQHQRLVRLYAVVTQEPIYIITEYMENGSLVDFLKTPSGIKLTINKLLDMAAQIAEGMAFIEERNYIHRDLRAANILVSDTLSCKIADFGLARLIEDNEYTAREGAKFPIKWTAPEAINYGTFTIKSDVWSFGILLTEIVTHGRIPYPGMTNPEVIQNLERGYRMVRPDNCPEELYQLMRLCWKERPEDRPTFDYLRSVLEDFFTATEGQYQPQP
As to the kind of experiment: SRC-Inhibitor-Assay, time-resolved fluorescence kinase assay (Lck). The format is biochemical. The note with it: ATP 5 μM; peptide 10 μM; enzyme 2.5 U/ml; pre-incubated 15 min at 15° C.
Source text: as §1, §2, §3, §4

Each structure is given as a SMILES string.

Experimental findings from patent US7189732B2, “Pyrido[2,3-d]pyrimidine dichloro-phenyl derivatives” (Hoffman-La Roche Inc., priority 2004, dated 2007) are described below.

What is called IC50 is the concentration that gives 50% inhibition.

T1 sequence (P12931 whole entry): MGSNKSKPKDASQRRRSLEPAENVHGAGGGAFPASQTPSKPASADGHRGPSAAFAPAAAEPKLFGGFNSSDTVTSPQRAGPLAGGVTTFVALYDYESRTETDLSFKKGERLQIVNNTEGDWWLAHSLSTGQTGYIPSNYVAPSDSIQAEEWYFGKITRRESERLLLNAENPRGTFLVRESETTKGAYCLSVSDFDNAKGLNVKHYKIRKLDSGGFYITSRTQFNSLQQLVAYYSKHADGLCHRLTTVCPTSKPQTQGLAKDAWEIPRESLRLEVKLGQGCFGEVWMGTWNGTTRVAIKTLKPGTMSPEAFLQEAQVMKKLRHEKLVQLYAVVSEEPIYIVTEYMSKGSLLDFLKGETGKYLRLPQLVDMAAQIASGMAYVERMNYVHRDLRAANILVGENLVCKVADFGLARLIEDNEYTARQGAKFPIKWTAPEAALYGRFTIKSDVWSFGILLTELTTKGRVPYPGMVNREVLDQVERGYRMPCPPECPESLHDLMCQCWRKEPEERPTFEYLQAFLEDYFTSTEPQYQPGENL

For `O=C(NCCO)c1nc2nc(Nc3ccc(OCCO)cc3)ncc2cc1-c1c(Cl)cccc1Cl` [Example 6-1, 6-(2,6-Dichloro-phenyl)-2-[4-(2-hydroxy-ethoxy)-phenylamino]-pyrido[2,3-d]pyrimidine-7-carboxylic acid (2-hydroxy-ethyl)-amide], the IC50 against Src (p60^c-src) is 5.4 nM; on Lck (p56^lck), 8.2 nM.

For the compound `CS(=O)(=O)NCCNC(=O)c1nc2nc(Nc3cccc(SCCO)c3)ncc2cc1-c1c(Cl)cccc1Cl` [Example 3, 6-(2,6-Dichloro-phenyl)-2-[3-(2-hydroxy-ethylsulfanyl)-phenylamino]-pyrido[2,3-d]pyrimidine-7-carboxylic acid (2-methanesulfonylamino-ethyl)-amide], the half-maximal inhibitory concentration (IC50) against Src (p60^c-src) stood at 0.7 nM; against Lck (p56^lck), 2 nM.

Turning to `N#Cc1nc2nc(Nc3ccc(OCCO)cc3)ncc2cc1-c1c(Cl)cccc1Cl` [Example 4, 6-(2,6-Dichloro-phenyl)-2-[4-(2-hydroxy-ethoxy)-phenylamino]-pyrido[2,3-d]pyrimidine-7-carbonitrile], the IC50 at Src (p60^c-src) stood at 1.7 nM; against Lck (p56^lck), 6.4 nM.

`O=C(NCCO)c1nc2nc(Nc3ccc(N4CCOCC4)cc3)ncc2cc1-c1c(Cl)cccc1Cl` [Example 6-2, 6-(2,6-Dichloro-phenyl)-2-(4-morpholin-4-yl-phenylamino)-pyrido[2,3-d]pyrimidine-7-carboxylic acid (2-hydroxy-ethyl)-amide]: the values for the IC50 against Src (p60^c-src) and on Lck (p56^lck) were 1.8 nM and 4.1 nM, respectively.

Consider `O=C(NC[C@H]1CCCN1)c1nc2nc(Nc3ccc(OCCO)cc3)ncc2cc1-c1c(Cl)cccc1Cl` [Example 6-5, 6-(2,6-Dichloro-phenyl)-2-[4-(2-hydroxy-ethoxy)-phenylamino]-pyrido[2,3-d]pyrimidine-7-carboxylic acid ((R)-1-pyrrolidin-2-ylmethyl)-amide], for which the IC50 against Src (p60^c-src) was 0.6 nM; on Lck (p56^lck), 1.7 nM.

`CSc1cccc(Nc2ncc3cc(-c4c(Cl)cccc4Cl)c(C(=O)NCCNS(C)(=O)=O)nc3n2)c1` [Example 6-7, 6-(2,6-Dichloro-phenyl)-2-(3-methylsulfanyl-phenylamino)-pyrido[2,3-d]pyrimidine-7-carboxylic acid (2-methanesulfonylamino-ethyl)-amide]: the IC50 on Src (p60^c-src) came out at 2.5 nM; at Lck (p56^lck), 9.9 nM.

For `NC(=O)c1nc2nc(Nc3ccc(OCCO)cc3)ncc2cc1-c1c(Cl)cccc1Cl` [Example 5, 6-(2,6-Dichloro-phenyl)-2-[4-(2-hydroxy-ethoxy)-phenylamino]-pyrido[2,3-d]pyrimidine-7-carboxylic acid amide], the figures for the concentration for half-maximal inhibition (IC50) at Src (p60^c-src) and on Lck (p56^lck) were 2.2 nM and 7.6 nM, respectively.

In the case of `N#Cc1nc2nc(Nc3ccc(N4CCOCC4)cc3)ncc2cc1-c1c(Cl)cccc1Cl` [Example 7-2, 6-(2,6-Dichloro-phenyl)-2-(4-morpholin-4-yl-phenylamino)-pyrido[2,3-d]pyrimidine-7-carbonitrile], the concentration for half-maximal inhibition (IC50) came out at 1.3 nM against Src (p60^c-src) and 11.7 nM at Lck (p56^lck).

As for `CS(=O)(=O)NCCNC(=O)c1nc2nc(Nc3ccc(OCCO)cc3)ncc2cc1-c1c(Cl)cccc1Cl` [Example 6-4, 6-(2,6-Dichloro-phenyl)-2-[4-(2-hydroxy-ethoxy)-phenylamino]-pyrido[2,3-d]pyrimidine-7-carboxylic acid (2-methanesulfonylamino-ethyl)-amide], the IC50 at Src (p60^c-src) was 1.1 nM; on Lck (p56^lck), 1.6 nM.

For `CCN(CC)CCOc1ccc(Nc2ncc3cc(-c4c(Cl)cccc4Cl)c(C#N)nc3n2)cc1` [Example 7-1, 6-(2,6-Dichloro-phenyl)-2-[4-(2-diethylamino-ethoxy)-phenylamino]-pyrido[2,3-d]pyrimidine-7-carbonitrile], the half-maximal inhibitory concentration (IC50) against Src (p60^c-src) was determined as 0.5 nM; at Lck (p56^lck), 2.7 nM.

With `Cc1ccc(Nc2ncc3cc(-c4c(Cl)cccc4Cl)c(C(=O)NCCNS(C)(=O)=O)nc3n2)cn1` [Example 6-8, 6-(2,6-Dichloro-phenyl)-2-(6-methyl-pyridin-3-ylamino)-pyrido[2,3-d]pyrimidine-7-carboxylic acid (2-methanesulfonylamino-ethyl)-amide], the results for the half-inhibitory concentration (IC50) at Src (p60^c-src) and at Lck (p56^lck) were 4.7 nM and 7.8 nM, respectively.

`CS(=O)(=O)NCCNC(=O)c1nc2nc(Nc3cccc(NS(C)(=O)=O)c3)ncc2cc1-c1c(Cl)cccc1Cl` [Example 6-6, 6-(2,6-Dichloro-phenyl)-2-(3-methanesulfonylamino-phenylamino)-pyrido[2,3-d]pyrimidine-7-carboxylic acid (2-methanesulfonylamino-ethyl)-amide]: the results for the IC50 against Src (p60^c-src) and at Lck (p56^lck) were 0.2 nM and 1.3 nM, respectively.

Turning to `CN1CCN(c2ccc(Nc3ncc4cc(-c5c(Cl)cccc5Cl)c(C(=O)NCCNS(C)(=O)=O)nc4n3)cc2)CC1` [Example 2, 6-(2,6-Dichloro-phenyl)-2-[4-(4-methyl-piperazin-1-yl)-phenylamino]-pyrido[2,3-d]pyrimidine-7-carboxylic acid (2-methanesulfonylamino-ethyl)-amide], the 50% inhibitory concentration (IC50) on Src (p60^c-src) was determined as 0.3 nM; against Lck (p56^lck) it was 1 nM.

For the compound `CS(=O)(=O)NCCNC(=O)c1nc2nc(Nc3ccc(N4CCOCC4)cc3)ncc2cc1-c1c(Cl)cccc1Cl` [Example 6-3, 6-(2,6-Dichloro-phenyl)-2-(4-morpholin-4-yl-phenylamino)-pyrido[2,3-d]pyrimidine-7-carboxylic acid (2-methanesulfonylamino-ethyl)-amide], the 50% inhibitory concentration (IC50) stood at 0.9 nM against Src (p60^c-src) and 1.5 nM against Lck (p56^lck).

Take `O=C(NC[C@H]1CCCN1)c1nc2nc(Nc3ccc(N4CCOCC4)cc3)ncc2cc1-c1c(Cl)cccc1Cl` [Example 1, 6-(2,6-Dichloro-phenyl)-2-(4-morpholin-4-yl-phenylamino)-pyrido[2,3-d]pyrimidine-7-carboxylic acid ((R)-1-pyrrolidin-2-ylmethyl)-amide]: the IC50 at Src (p60^c-src) is 0.4 nM; on Lck (p56^lck) it was 1.7 nM.

For the compound `NC(=O)c1nc2nc(Nc3ccc(N4CCOCC4)cc3)ncc2cc1-c1c(Cl)cccc1Cl` [Example 8-1, 6-(2,6-Dichloro-phenyl)-2-(4-morpholin-4-yl-phenylamino)-pyrido[2,3-d]pyrimidine-7-carboxylic acid amide], the IC50 against Src (p60^c-src) is 1 nM; on Lck (p56^lck), 3.7 nM.
